Test in all cases: cell-based
For one experiment, the target named is T1, B1 receptor (Oryctolagus cuniculus, UniProt P48748).
T1 sequence (P48748 1-352): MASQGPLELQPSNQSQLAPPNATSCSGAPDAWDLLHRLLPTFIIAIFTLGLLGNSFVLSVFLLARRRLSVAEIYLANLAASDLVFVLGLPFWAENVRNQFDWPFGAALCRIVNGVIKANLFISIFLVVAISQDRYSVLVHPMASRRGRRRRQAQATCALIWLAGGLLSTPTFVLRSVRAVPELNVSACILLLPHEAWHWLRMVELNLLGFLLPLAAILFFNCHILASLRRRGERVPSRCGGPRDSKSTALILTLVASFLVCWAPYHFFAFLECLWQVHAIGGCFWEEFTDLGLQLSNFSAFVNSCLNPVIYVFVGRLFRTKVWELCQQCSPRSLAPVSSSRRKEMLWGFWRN
Particulars: for Kb: Rb.A. pA2, apparent affinity as antagonist vs desArg9BK; for Rb.A. α^E: residual agonistic activity at 10 μg/mL in comparison with desArg9BK. The gist of the method: (§1)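 Isolated rabbit jugular vein (captopril 1 μmol/L), guinea pig ileum, endothelium-free rabbit aorta and human umbilical vein, in Krebs at 37 °C, with isometric tension recorded. Agonism was tested at 10 μg/mL.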

Experiment [1] has as its target T2, B2 receptor (Cavia porcellus, UniProt O70526).
T2 sequence (O70526 1-372): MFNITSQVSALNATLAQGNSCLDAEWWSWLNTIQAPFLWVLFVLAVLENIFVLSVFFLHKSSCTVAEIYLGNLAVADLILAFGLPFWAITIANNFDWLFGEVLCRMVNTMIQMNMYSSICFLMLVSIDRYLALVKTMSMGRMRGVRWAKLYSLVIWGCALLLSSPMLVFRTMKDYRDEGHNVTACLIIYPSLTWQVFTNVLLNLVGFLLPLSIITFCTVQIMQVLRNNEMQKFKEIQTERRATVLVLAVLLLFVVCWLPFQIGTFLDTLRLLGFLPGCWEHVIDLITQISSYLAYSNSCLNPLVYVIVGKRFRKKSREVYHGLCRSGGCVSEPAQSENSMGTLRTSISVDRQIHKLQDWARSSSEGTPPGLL
To be noted: for G.P.I. pA2: vs BK, Inactive = no detectable antagonistic effect at ≦ 10 μg/ml, F.ag. full agonist, P.ag. partial agonist; for G.P.I. α^E: residual agonistic activity at 10 μg/mL in comparison with BK. In a few lines:
as §1

Experiment [2] addresses T3, B2 receptor (Oryctolagus cuniculus, UniProt Q28642).
T3 sequence (Q28642 1-367): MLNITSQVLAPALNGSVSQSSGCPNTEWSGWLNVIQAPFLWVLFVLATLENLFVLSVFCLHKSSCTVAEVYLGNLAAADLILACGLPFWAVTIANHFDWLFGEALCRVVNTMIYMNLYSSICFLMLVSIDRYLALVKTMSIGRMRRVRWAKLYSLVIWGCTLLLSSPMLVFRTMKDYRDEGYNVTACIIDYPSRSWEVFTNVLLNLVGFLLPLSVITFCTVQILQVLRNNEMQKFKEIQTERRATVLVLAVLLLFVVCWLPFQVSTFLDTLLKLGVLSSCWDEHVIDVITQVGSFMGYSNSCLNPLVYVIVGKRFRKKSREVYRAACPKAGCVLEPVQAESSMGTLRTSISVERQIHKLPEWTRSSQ
To be noted: for Rb.J.V. α^E: residual agonistic activity at 10 μg/mL in comparison with BK. In a few lines: as §1

[3] abbreviates: antagonist applied 10 min before, Inactive = no detectable antagonistic effect at ≦ 10 μg/ml.

Non-standard residues stand in square brackets, D forms with d. Residues, ends and D or L forms follow the SMILES beside them. 2Nal = N[C@@H](Cc1ccc2ccccc2c1)C(=O)O; d2Nal = N[C@H](Cc1ccc2ccccc2c1)C(=O)O; Hyp = O=C(O)[C@@H]1C[C@@H](O)CN1; Tic = O=C(O)[C@@H]1Cc2ccccc2CN1; dTic = O=C(O)[C@H]1Cc2ccccc2CN1; Sar = CNCC(=O)O A value given as a limit tells only on which side of the number the result lay.

As for `CC(C)C[C@H](NC(=O)[C@H]1Cc2ccccc2CN1C(=O)[C@H](CO)NC(=O)[C@H](Cc1ccccc1)NC(=O)CNC(=O)[C@@H]1CCCN1C(=O)[C@@H]1CCCN1C(=O)[C@@H](N)CCCNC(=N)N)C(=O)O` [Compound 8, (D-Tic^7, Leu^8)desArg^9BK] (H-RPPGFS[dTic]L-OH; N-terminus and C-terminus assumed), the Kb at B1 receptor (setting [3]) was 1380 nM. The “G.P.I. pA2” value on B2 receptor [1] is listed as “Inactive”.
The corresponding values for `CNCC(=O)N[C@@H](CCCNC(=N)N)C(=O)N1CCC[C@H]1C(=O)N1CCC[C@H]1C(=O)NCC(=O)N[C@@H](Cc1ccccc1)C(=O)N[C@@H](CO)C(=O)N1Cc2ccccc2C[C@@H]1C(=O)N[C@@H](CC(C)C)C(=O)O` [Compound 9, Sar(D-Tic^7, Leu^8)desArg^9BK] (H-[Sar]RPPGFS[dTic]L-OH; N-terminus and C-terminus assumed) are 692 nM and “Inactive”.
In the case of `CC(C)C[C@H](NC(=O)[C@H]1Cc2ccccc2CN1C(=O)[C@H](CO)NC(=O)[C@H](Cc1ccccc1)NC(=O)CNC(=O)[C@@H]1CCCN1C(=O)[C@@H]1CCCN1C(=O)[C@H](CCCNC(=N)N)NC(=O)[C@H](N)CCCNC(=N)N)C(=O)O` [Compound 12, D-Arg(D-Tic^7, Leu^8)desArg^9BK] (H-[dR]RPPGFS[dTic]L-OH; N-terminus and C-terminus assumed), the Kb on B1 receptor (setting [3]) is 200 nM; at B2 receptor [2], 4.47 µM. In addition, at B2 receptor [1], the “G.P.I. pA2” value is given as “Inactive”.
Consider `CC[C@H](C)[C@H](NC(=O)[C@H]1Cc2ccccc2CN1C(=O)[C@H](CO)NC(=O)[C@H](Cc1ccccc1)NC(=O)CNC(=O)[C@@H]1CCCN1C(=O)[C@@H]1CCCN1C(=O)[C@H](CCCNC(=N)N)NC(=O)[C@H](N)CCCNC(=N)N)C(=O)O` [Compound 13, D-Arg(D-Tic^7, Ile^8)desArg^9BK] (H-[dR]RPPGFS[dTic]I-OH; N-terminus and C-terminus assumed), for which the Kb at B1 receptor (setting [3]) was 107 nM; at B2 receptor [2] it was 4.57 µM. In addition, the “Rb.A. pA2” value on B1 receptor (apparent affinity as antagonist vs desArg9BK, antagonist applied 10 min before, Inactive = no detectable antagonistic effect at ≦ 10 μg/ml) is on record as 6.97. At B2 receptor [1], the “G.P.I. pA2” value is reported as “Inactive”.
Regarding `CC[C@H](C)[C@H](NC(=O)[C@@H]1Cc2ccccc2CN1C(=O)[C@H](CO)NC(=O)[C@H](Cc1ccccc1)NC(=O)CNC(=O)[C@@H]1CCCN1C(=O)[C@@H]1CCCN1C(=O)[C@H](CCCNC(=N)N)NC(=O)[C@H](N)CCCNC(=N)N)C(=O)O` [Compound 14, D-Arg(L-Tic^7, Ile^8)desArg^9BK] (H-[dR]RPPGFS[Tic]I-OH; N-terminus and C-terminus assumed), the Kb was greater than 9120 nM on B1 receptor (setting [3]) and 6.46 µM on B2 receptor [2]. Further, the “G.P.I. pA2” value on B2 receptor [1] is given as “Inactive”.
The corresponding values for `CC(C)C[C@H](NC(=O)[C@H]1Cc2ccccc2CN1C(=O)[C@H](CO)NC(=O)[C@H](Cc1ccccc1)NC(=O)CNC(=O)[C@@H]1C[C@@H](O)CN1C(=O)[C@@H]1CCCN1C(=O)[C@H](CCCNC(=N)N)NC(=O)[C@H](N)CCCNC(=N)N)C(=O)O` [Compound 17, D-Arg(Hyp^3, D-Tic^7, Leu^8)desArg^9BK] (H-[dR]RP[Hyp]GFS[dTic]L-OH; N-terminus and C-terminus assumed) are 229 nM, greater than 9.12 µM and “Inactive”.
As for `CC(=O)N[C@@H](CCCCN)C(=O)N[C@@H](CCCNC(=N)N)C(=O)N1CCC[C@H]1C(=O)N1CCC[C@H]1C(=O)NCC(=O)N[C@@H](Cc1ccccc1)C(=O)N[C@@H](CO)C(=O)N[C@H](Cc1ccc2ccccc2c1)C(=O)N[C@@H](CC(C)C)C(=O)O` [Compound 18, AcLys(D-βNal^7, Leu^8)desArg^9BK] (Ac-KRPPGFS[d2Nal]L-OH; C-terminus assumed), the Kb at B1 receptor (setting [3]) is 12.3 nM. For the same molecule, at B1 receptor, the “Rb.A. α^E” value came to 0. On B2 receptor [1], the “G.P.I. α^E” value is 0 and the “G.P.I. pA2” value is recorded as “Inactive”. Also, on B2 receptor [2], the Kb is greater than 8.71 µM and the “Rb.J.V. α^E” value came to 0.
With `CC[C@H](C)[C@H](NC(=O)[C@@H](Cc1ccc2ccccc2c1)NC(=O)[C@H](CO)NC(=O)[C@H](Cc1ccccc1)NC(=O)CNC(=O)[C@@H]1CCCN1C(=O)[C@@H]1CCCN1C(=O)[C@H](CCCN=C(N)N)NC(=O)[C@H](CCCCN)NC(C)=O)C(=O)O` [Compound 19, AcLys(D-βNal^7, Ile^8)desArg^9BK] (Ac-KRPPGFS[d2Nal]I-OH), on B1 receptor (setting [3]), the Kb is 3.98 nM.
`CC[C@H](C)[C@H](NC(=O)[C@H](Cc1ccc2ccccc2c1)NC(=O)[C@H](CO)NC(=O)[C@H](Cc1ccccc1)NC(=O)CNC(=O)[C@@H]1CCCN1C(=O)[C@@H]1CCCN1C(=O)[C@H](CCCNC(=N)N)NC(=O)[C@H](CCCCN)NC(C)=O)C(=O)O` [Compound 20, AcLys(L-βNal^7, Ile^8)desArg^9BK] (Ac-KRPPGFS[2Nal]I-OH; C-terminus assumed): the Kb at B1 receptor (setting [3]) is 5010 nM. Further, on B1 receptor, the “Rb.A. α^E” value turned out to be 0. In addition, at B2 receptor [1], the “G.P.I. α^E” value was determined as 0.06 and the “G.P.I. pA2” value is on record as “Inactive”. Besides, at B2 receptor [2], the Kb is 7.76 µM and the “Rb.J.V. α^E” value stood at 0.
Turning to `CC[C@H](C)[C@H](NC(=O)[C@@H](Cc1ccc2ccccc2c1)NC(=O)[C@H](CO)NC(=O)[C@H](Cc1ccccc1)NC(=O)CNC(=O)[C@@H]1CCCN1C(=O)[C@@H]1CCCN1C(=O)[C@H](CCCNC(=N)N)NC(=O)[C@H](N)CCCNC(=N)N)C(=O)O` [Compound 23, D-Arg(D-βNal^7, Ile^8)desArg^9BK] (H-[dR]RPPGFS[d2Nal]I-OH; N-terminus and C-terminus assumed), the Kb at B1 receptor (setting [3]) is 19.1 nM; on B2 receptor [2], 0.427 µM.
In the case of `CC(C)C[C@H](NC(=O)[C@@H](Cc1ccc2ccccc2c1)NC(=O)[C@H](CO)NC(=O)[C@H](Cc1ccccc1)NC(=O)CNC(=O)[C@@H]1CCCN1C(=O)[C@@H]1CCCN1C(=O)[C@H](CCCNC(=N)N)NC(=O)[C@H](N)CCCNC(=N)N)C(=O)O` [Compound 24, D-Arg(D-βNal^7, Leu^8)desArg^9BK] (H-[dR]RPPGFS[d2Nal]L-OH; N-terminus and C-terminus assumed), the Kb was 50.1 nM at B1 receptor (setting [3]) and 3.63 µM at B2 receptor [2]. The “G.P.I. pA2” value on B2 receptor [1] is “Inactive”.
As to `CC[C@H](C)[C@H](NC(=O)[C@@H](Cc1ccc2ccccc2c1)NC(=O)[C@H](CO)NC(=O)[C@H](Cc1ccccc1)NC(=O)CNC(=O)[C@@H]1CCCN1C(=O)[C@@H]1CCCN1C(=O)[C@H](CCCNC(=N)N)NC(=O)[C@H](N)CCCCN)C(=O)O` [Compound 25, D-Lys(D-βNal^7, Ile^8)desArg^9BK] (H-[dK]RPPGFS[d2Nal]I-OH; N-terminus and C-terminus assumed), the Kb on B1 receptor (setting [3]) was 19.5 nM; at B2 receptor [2], 3.72 µM.
The corresponding values for `CC[C@H](C)[C@H](NC(=O)[C@@H](Cc1ccc2ccccc2c1)NC(=O)[C@H](CO)NC(=O)[C@H](Cc1ccccc1)NC(=O)CNC(=O)[C@@H]1CCCN1C(=O)[C@@H]1CCCN1C(=O)[C@H](CCCNC(=N)N)NC(=O)CNC)C(=O)O` [Compound 26, Sar(D-βNal^7, Ile^8)desArg^9BK] (H-[Sar]RPPGFS[d2Nal]I-OH; N-terminus and C-terminus assumed) are 38 nM and 9.12 µM.
With `CNCC(=O)N[C@@H](Cc1ccc(O)cc1)C(=O)NCCCCCC(=O)N[C@@H](CCCCN)C(=O)N[C@@H](CCCNC(=N)N)C(=O)N1CCC[C@H]1C(=O)N1CCC[C@H]1C(=O)NCC(=O)N[C@@H](Cc1ccccc1)C(=O)N[C@@H](CO)C(=O)N1CCC[C@H]1C(=O)N[C@@H](CC(C)C)C(=O)O` [Compound 28, SarTyrεAhxLys(Leu^8)desArg^9BK], the Kb on B1 receptor (setting [3]) is 6.76 nM. Also, the “G.P.I. pA2” value on B2 receptor [1] was “Inactive”.
